Laboratory results published in patent US6306890A, “Esters derived from indolealkanols and novel amides derived from indolealkylamides that are selective COX-2 inhibitors” (Vanderbilt University, priority 1999, dated 2001).
Like-named read-outs stand apart in the source and are kept apart here.

Legend:
[1] = molecular target: T1, COX-2 in activated RAW264.7 macrophages (Mus musculus, UniProt Q05769); assay: Inhibition of COX-2 activity (PGD2 production) in intact activated RAW264.7 cells; assay type: cell-based, murine; settings: FIG. 1; inhibitor 0-1 μM, 30 minutes at 37° C.; LPS + IFN-γ activated
T1 construct: PGD2 from [1-14C]-arachidonic acid by TLC
T1 sequence (Q05769 18-604): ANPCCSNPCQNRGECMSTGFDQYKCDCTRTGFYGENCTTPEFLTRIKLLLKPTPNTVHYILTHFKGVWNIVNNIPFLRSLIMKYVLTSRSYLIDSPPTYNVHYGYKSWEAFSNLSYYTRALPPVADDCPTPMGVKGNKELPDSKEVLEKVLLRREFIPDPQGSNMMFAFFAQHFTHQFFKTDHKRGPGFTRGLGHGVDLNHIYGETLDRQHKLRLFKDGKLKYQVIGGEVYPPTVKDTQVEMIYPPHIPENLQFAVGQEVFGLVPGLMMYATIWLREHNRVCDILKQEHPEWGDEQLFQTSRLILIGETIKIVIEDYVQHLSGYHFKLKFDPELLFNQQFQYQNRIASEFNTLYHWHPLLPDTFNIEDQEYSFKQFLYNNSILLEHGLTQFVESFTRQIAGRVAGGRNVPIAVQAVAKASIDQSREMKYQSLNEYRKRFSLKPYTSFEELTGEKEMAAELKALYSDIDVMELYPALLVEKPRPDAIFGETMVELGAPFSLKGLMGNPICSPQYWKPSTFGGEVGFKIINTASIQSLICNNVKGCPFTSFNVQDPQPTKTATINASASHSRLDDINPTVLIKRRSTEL
Method: The ability of these compounds to inhibit COX-2 in intact cells was assayed in activated RAW264.7 macrophages in which COX-2 activity was induced by pathologic stimuli. The macrophages were treated with lipopolysaccharide ([…]) and γ-interferon (10 U/mL) for 7.5 hours to induce COX-2 and then treated with several concentrations of each of inventive Compounds 5c, 5e, and 9e.
More specifically, low passage number murine RAW264.7 cells were grown in DMEM containing 10% heat-inactivated FBS. Cells (6.2×10^6 cells/T25 flask) were activated with 500 ng/mL LPS and 10 units/mL IFN-γ in serum-free DMEM for 7 hours. Vehicle (DMSO) or inhibitor (inventive Compound 5c, 5e, or 9e) in DMSO (0-1 μM) was added for 30 minutes at 37° C. […] Aliquots (200 μL) were removed into termination solution and total products were quantitatively determined by the TLC assay as described earlier.

ovine COX-1 = molecular target: T2, ovine COX-1 (Ovis aries, UniProt P05979); assay: Inhibition of ovine COX-1, TLC assay ([1-14C]-arachidonic acid), time-dependent
T2 sequence (P05979 25-600): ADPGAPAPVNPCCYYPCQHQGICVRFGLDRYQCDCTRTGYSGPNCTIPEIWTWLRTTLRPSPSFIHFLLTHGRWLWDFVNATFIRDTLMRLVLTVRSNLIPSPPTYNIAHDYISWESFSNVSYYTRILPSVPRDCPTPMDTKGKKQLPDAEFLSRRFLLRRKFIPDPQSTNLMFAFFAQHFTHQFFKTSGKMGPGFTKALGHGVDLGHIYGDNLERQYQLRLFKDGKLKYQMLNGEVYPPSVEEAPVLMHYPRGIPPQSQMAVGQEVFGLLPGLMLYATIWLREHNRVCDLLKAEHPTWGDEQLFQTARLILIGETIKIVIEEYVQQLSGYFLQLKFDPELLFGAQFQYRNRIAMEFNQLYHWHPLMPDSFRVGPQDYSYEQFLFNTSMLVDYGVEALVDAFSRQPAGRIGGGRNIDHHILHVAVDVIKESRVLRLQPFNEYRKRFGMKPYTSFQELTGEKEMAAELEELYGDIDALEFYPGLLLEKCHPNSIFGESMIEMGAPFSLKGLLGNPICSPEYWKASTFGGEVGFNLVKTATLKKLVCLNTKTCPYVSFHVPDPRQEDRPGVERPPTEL

human COX-2 = molecular target: T3, human COX-2 (Homo sapiens, UniProt P35354); assay: Inhibition of purified human COX-2, TLC assay ([1-14C]-arachidonic acid), time-dependent; settings: for Selectivity: COX-2 selectivity ratio, IC50 COX-1 / IC50 COX-2
T3 sequence (P35354 18-604): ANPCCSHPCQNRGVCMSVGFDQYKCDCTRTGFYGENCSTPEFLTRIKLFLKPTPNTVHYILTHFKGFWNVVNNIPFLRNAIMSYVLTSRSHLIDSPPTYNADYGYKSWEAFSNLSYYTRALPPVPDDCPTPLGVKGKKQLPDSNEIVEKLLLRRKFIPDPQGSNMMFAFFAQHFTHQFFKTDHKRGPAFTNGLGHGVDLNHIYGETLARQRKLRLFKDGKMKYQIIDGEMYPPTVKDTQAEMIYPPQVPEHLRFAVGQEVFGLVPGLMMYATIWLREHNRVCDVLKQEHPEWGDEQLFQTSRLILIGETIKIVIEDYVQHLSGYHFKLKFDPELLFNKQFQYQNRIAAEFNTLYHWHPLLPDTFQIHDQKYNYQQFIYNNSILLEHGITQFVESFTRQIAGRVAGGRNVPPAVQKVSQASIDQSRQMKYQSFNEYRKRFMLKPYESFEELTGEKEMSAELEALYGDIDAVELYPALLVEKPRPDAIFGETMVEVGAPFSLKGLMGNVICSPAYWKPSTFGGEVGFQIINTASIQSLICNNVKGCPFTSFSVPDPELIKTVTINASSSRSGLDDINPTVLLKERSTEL

[2] = system: carrageenan-induced rat foot paw edema; assay: Carrageenan-induced rat foot paw edema assay; assay type: in vivo, rat (male Sprague Dawley); settings: FIG. 2 / FIG. 3; gavage 1 hour after carrageenan, paw volume at 3 hour post-injection
Method: All procedures were performed according to approved animal protocols (#M/98/251, Vanderbilt University Animal Care Committee). Male Sprague Dawley rats (Harlan Sprague Dawley, Indianapolis, Ind.) (150-175 grams) were fasted for 18 hours and then injected with λ-carrageenan (0.1 ml of a 1% suspension in 0.85% saline, Fluka BioChemika, Milwaukee, Wis.) into the right hind footpad. After 1 hour, 90 μl inhibitor (either Compound 5c or Compound 9e) in DMSO was added to 6 ml corn oil, and the rats were gavaged with 0.5 ml corn oil containing DMSO or containing DMSO and inhibitor.
The ipsilateral footpad volume was measured with a water displacement plethysmometer (Ugo Basile, Italy, distributed by Stoelting Co., Wood Dale, Ill.) at 3 hour post-injection and compared to the initial pre-injection paw volume. Inhibitor concentrations were varied as shown in FIG. 2 (Compound 5c) and FIG. 3 (Compound 9e), with n=6 animals per group in duplicate experiments.

COc1ccc(C(=O)OCCc2c(C)n(C(=O)c3ccc(Cl)cc3)c3ccc(OC)cc23)cc1 [Compound 5c, N-(p-chlorobenzoyl)-5-methoxy-2-methylindole-3ethylo-(p-methoxy)benzoate]
inhibition of production of PGD2 [1]: inhibition of production of PGD2 | IC50 (ovine COX-1): > 66000 nM | IC50 (human COX-2): 40 nM | Selectivity (human COX-2; Table 1 esters): > 1466 | inhibition of edema in the rat footpad [2]: inhibition of edema in the rat footpad

COc1ccc2c(c1)c(CCOC(=O)c1ccc(Br)cc1)c(C)n2C(=O)c1ccc(Cl)cc1 [Compound 5f, N-(p-Chlorobenzoyl)-5-methoxy-2-methylindole-3-ethyl-(p-bromo)benzoate]
IC50 (ovine COX-1): > 66000 nM | IC50 (human COX-2): 40 nM | Selectivity (human COX-2; Table 1 esters): > 1466

N-(p-chlorobenzoyl)-5-methoxy-2-methylindole-3-ethyl-(2-phenyl)ethylamide [Compound 9i]
IC50 (ovine COX-1; read-out: IC50 COX-1, inventive amides table): ~17000 nM | Selectivity (human COX-2; inventive amides table): ~ 425 | IC50 (human COX-2; read-out: IC50 COX-2, inventive amides table): ~40 nM

COc1ccc2c(c1)c(CCOC(=O)c1ccc(I)cc1)c(C)n2C(=O)c1ccc(Cl)cc1 [Compound 5g, N-(phlorobenzoyl)-5-methoxy-2-methylindole-3-ethyl(-p-iodo)benzoate]
IC50 (ovine COX-1): > 66000 nM | IC50 (human COX-2): 50 nM | Selectivity (human COX-2; Table 1 esters): > 1320

COc1ccc2c(c1)c(CCOC(=O)c1ccc(C)cc1)c(C)n2C(=O)c1ccc(Cl)cc1 [Compound 5b, N-(pchlorobenzoyl)-5-methoxy-2-methylindole-ethyl-(p-methyl)benzoate]
IC50 (ovine COX-1): > 66000 nM | IC50 (human COX-2): 50 nM | Selectivity (human COX-2; Table 1 esters): > 1320

COc1ccc2c(c1)c(CCNC(=O)c1ccc(Cl)cc1)c(C)n2C(=O)c1ccc(Cl)cc1 [Compound 9e, N-(p-chlorobenzoyl)-5-methoxy-2-methylindole-3-ethyl-(p-chloro)benzamide]
inhibition of production of PGD2 [1]: inhibition of production of PGD2 | IC50 (ovine COX-1): 4000 nM | IC50 (human COX-2): 50 nM | Selectivity (human COX-2; inventive amides table): 80 | inhibition of edema in the rat footpad [2]: inhibition of edema in the rat footpad

CCCCC(=O)OCCc1c(C)n(C(=O)c2ccc(Cl)cc2)c2ccc(OC)cc12 [Compound 5a, N-(p-chlorobenzoyl)-5-methoxy-2-methylindole-3-ethyl-valerate]
IC50 (ovine COX-1; read-out: IC50 COX-1, Table 1 esters, ovine COX-1 (44 nM) preincubated 25° C. 15 min, [1-14C]-arachidonic acid 50 μM, 37° C., 30 seconds, duplicate): > 66000 nM | Selectivity (human COX-2; Table 1 esters): > 1015 | IC50 (human COX-2; read-out: IC50 COX-2, Table 1 esters, time-dependent inhibition, [1-14C]-arachidonic acid 50 μM, 37° C., 30 seconds, duplicate): 650 nM

COc1ccc2c(c1)c(CCNC(=O)c1ccc(Cl)cc1)c(C)n2Cc1ccc(Br)cc1 [Compound 9h, N-(p-bromobenzyl)-5-methoxy-2-methylindole-3-ethyl(p-chloro) benzamide]
IC50 (ovine COX-1): > 66000 nM

COc1ccc2c(c1)c(CCOC(=O)c1ccc(Cl)cc1)c(C)n2C(=O)c1ccc(Cl)cc1 [Compound 5e, N -(p-chlorobenzoyl)-5-methoxy-2-methylindole-3-ethyl-(p-chloro)benzoate]
inhibition of production of PGD2 [1]: inhibition of production of PGD2 | IC50 (ovine COX-1): > 66000 nM | IC50 (human COX-2): 50 nM | Selectivity (human COX-2; Table 1 esters): > 1320

COc1ccc2c(c1)c(CCOC(=O)c1ccc(Cl)cc1)c(C)n2Cc1ccc(Br)cc1 [Compound 5h, N-(p-bromobenzyl)-5-methoxy-2-methylindole-3-ethyl-(p-chloro)benzoate]
IC50 (ovine COX-1): > 66000 nM

COc1ccc2c(c1)c(CCOC(=O)c1ccccc1OC)c(C)n2C(=O)c1ccc(Cl)cc1 [Compound 5d, N-(pchlorobenzoyl)-5-methoxy-2-methylindole-3thyl-(o-methoxy)benzoate]
IC50 (ovine COX-1): > 66000 nM | IC50 (human COX-2): 50 nM | Selectivity (human COX-2; Table 1 esters): > 1320
